Experimental data: a melting point compilation (Tetko et al.; mined from patent text by program, amines drawn as free bases though some values may be those of a salt)

| Compound | melting point [°C] |
| --- | --- |
| Cn1nccc1CCS(=O)Cc1ccc(OCc2coc(/C=C/c3ccc(OC(F)(F)F)cc3)n2)cc1 (stereo not drawn) | 138 to 139 |
| NCCSc1ncccc1C(N)=O | 131 to 133 |
| CCOC(=O)c1c(N2CCN(C=O)CC2)c2cc(F)ccc2n(Cc2ccccc2)c1=O | 206 |
| Cc1c(C)n(-c2ccccc2)c2ncn(C)c(=O)c12 | 207 to 208 |
| C=CCN1Cc2cscc2Nc2ccccc21 | 67 to 69 |
| O=C(OC1CCCCC1)c1ncn2c1[C@@H]1CCN1C(=O)c1c(Br)cccc1-2 | 203 to 204 |
| CC1(Br)COc2ccc(C#N)cc21 (stereo not drawn) | 163 to 165 |
| Nc1n[nH]c2ccc(Cl)cc12 | 162 to 163 |
| CN1CCC(Sc2ccccc2)C(C#N)C1 (stereo not drawn) | 114 |
| CCCC(=O)c1cnc2c(F)cccc2c1Nc1ccc(O)cc1C | 205 to 207 |
| O=c1c2ccccc2nc(-n2ccnc2)n1-c1ccccc1 | 163 to 165 |
| CC(C)n1c(=O)oc2cc(N3C[C@H](C(N)=O)OC3=O)ccc21 | 182 to 184 |
| OCC(O)Cc1c(Cl)cc2c(c1OCc1ccccc1)CCC2 (stereo not drawn) | 101 to 104 |
| O=C(Nc1cccnn1)N1CCN(c2nccc(-c3ccc(F)c(F)c3)n2)CC1 | 218 to 219 |
| CCOC(=O)c1cc(=O)c2ccc(OS(=O)(=O)c3ccc(C)cc3)c([N+](=O)[O-])c2o1 | 125 |
| CC(=O)NCCCn1c(-c2ccc(Br)cc2)csc1=Nc1ccccc1 | 155 to 157 |
| C=CC(=O)N(CCCCCC)C[C@H](O)[C@@H](O)[C@H](O)[C@H](O)CO | 86 to 88 |
| CC#CN1N=C(c2ccc(F)cc2)c2cc(Cl)ccc2CS1(=O)=O | 139 to 140 |
| O=C1CC(c2cccc(-n3ccnc3)c2)=Nc2cc(N3CCC4(CC3)OCCO4)c(-c3ccccc3F)cc2N1 | 225 |
| COc1ccc(-c2[nH]cnc2-c2cc(OC)c(N)c(OC)c2)cc1N | 140 to 142 |
| COc1cc(NC(=O)c2ccco2)ccc1S(=O)(=O)N1C(=O)C(c2ccccc2Cl)(N(C)C)c2cc(Cl)ccc21 (stereo not drawn) | 255 |
| Cc1cc2c(F)c(Oc3cc(Cl)nc(N)n3)ccc2[nH]1 | 255 to 258 |
| CC(C)c1c(-c2ccncc2)[nH]c2ccc(C3=NNC(=O)CC3)cc12 | > 300 |
| O=C(OC1CCCCCCC1)n1c(-c2cscn2)nc2ccccc21 | 85 to 88 |

| Compound | melting point [°C] |
| --- | --- |
| CNc1cc(NC)cc(C(O)CS(C)(=O)=O)c1 (stereo not drawn) | 106 |
| O=C(O)C1=Cc2c(cc(Cl)c(Cl)c2Cl)OC1C(F)(F)F (stereo not drawn) | 236 to 239 |
| O=[N+]([O-])c1nccnc1NCC(O)CO (stereo not drawn) | 100 to 102 |
| CNCC(O)c1cc(C)oc1C (stereo not drawn) | 76 to 77 |
| CCN1c2ncccc2C(=O)Nc2c(C(F)(F)F)cc(C)nc21 | 150 to 151 |
| CN(C)CCON=C1c2ccccc2C2CC2c2ccccc21 (stereo not drawn) | 69 to 70 |
| N#Cc1ccc2[nH]c3c(ccc4cc[nH]c43)c2c1 | > 250 |
| CN(C)C=NC(C#N)=CN(C)C | 78 to 81 |
| Cc1oc(-c2ccc3ccccc3c2)nc1COc1ccc(COc2ncccc2CO)cc1 | 161 to 162 |
| NS(=O)(=O)c1ccc(NC(=O)CNC2CCCCC2)c(Cl)c1 | 213 to 215 |
| CS(=O)(=O)Nc1cnccc1CCCOc1cccnc1Oc1cccc(Cl)c1 | 131 to 133 |
| CCSc1ccnc(Cl)c1C#N | 97 to 98 |
| COc1ccc(-c2nc(Sc3ccccn3)[nH]c2-c2ccc(OC)cc2)cc1 | 94 |
| Cc1c(-c2ccc(O)cc2)n(Cc2ccc(OCCN3CCCCC3)cc2)c2ccc(O)cc12 | 214 to 217 |
| CC(=O)SCC(CC(C)C)C(=O)Nc1cccc(C(=O)O)c1C (stereo not drawn) | 154 to 156 |
| O=[N+]([O-])c1ccc2nc(CO)[nH]c2c1 | 157 to 162 |
| Nc1cc(=O)n(Cc2cccc([N+](=O)[O-])c2)[nH]1 | 163 |
| CN(O)CCCc1ccc2c(c1)C(=O)c1ccccc1CO2 | 113 to 114 |
| FC(F)(F)c1ccc(-n2ccc3c(Cl)nccc32)c(Cl)c1 | 133 to 135 |
| Nc1nc(-n2cc(C(=O)O)c(=O)c3cc(F)c(F)c(Cl)c32)ncc1F | 242 to 246 |
| Cn1cnc(C(O)c2cc(Cl)cc3c2OC(C)(C)OC3)c1 (stereo not drawn) | 131 to 136 |
| CCOC(=O)c1ncn(C)c1N | 193 to 194 |
| CNC(=O)c1cc(C(=O)O)cc(C(=O)NC)n1 | < 300 |
| C=CCc1nc(Cl)nc(Cl)c1OC | 61 to 62 |

| Compound | melting point [°C] |
| --- | --- |
| O=C(NCc1ccc(F)cc1)c1ccnc(N2CCN(CC3CC3)C2=O)c1 | 150 to 151 |
| CC(CCCO)C(c1cc(F)ccc1F)S(=O)(=O)c1ccc(Cl)cc1 (stereo not drawn) | 67 to 69 |
| Cc1ccc2c(c1Cl)S(=O)(=O)N=CN2C1CC1 | 218 to 223 |
| CCC=C1C([N+](=O)[O-])C2SCCCN2C(=O)N1C (stereo not drawn) | 155 to 156 |
| O=S(=O)(Nc1ccc(Cl)cc1C(=NOCc1ccc(Cl)c(Cl)c1)c1ccccc1)C(F)(F)F | 87 to 88 |
| CNc1cc(N(C)S(=O)(=O)c2ccc(N)cc2)nc(NC)n1 | 79 to 80 |
| COC(=O)C1=C(C)NC(C)=C(S(C)(=O)=O)C1c1ccccc1C(F)(F)F (stereo not drawn) | 160 to 163 |
| Cc1c2cnccc2c(C)c2c1c1cc(O)ccc1n2C | 337 to 338 |
| Cc1cc(=O)n(C)c2c(C)cc(C(O)(C(F)(F)F)C(F)(F)F)cc12 | 241 to 243 |
| CSc1nc(SC)nc(-c2cc(C(C)(C)C)c(O)c(C(C)(C)C)c2)n1 | 94 |
| COCCOc1ccc(/C=C(\C)C(=O)NS(=O)(=O)c2cccc(Cl)c2)c(Oc2ncc(C(F)(F)F)cc2Cl)c1 | 89 to 92 |
| CCCCn1cc(C(=O)OCC)c(=O)c2oc3ccc(Cl)cc3c(=O)c21 | 226 to 228 |
| Cc1nc2cc(NC(=O)c3cc4cc(F)ccc4n3Cc3cccc(F)c3)ccn2c1C | 251 to 253 |
| c1ccc(-c2ccnc(Nc3cccc(-n4ccnc4)c3)n2)nc1 | 210 to 211 |
| COc1nc(Cl)nc(Cl)c1C#N | 117 |
| COC(=O)c1cc(OC)c(OC)cc1C1=NCCc2ccccc21 | 133 |
| COc1c(F)cccc1-c1cnn2ccc(N3CCN(C(=O)OC(C)C)CC3)nc12 | 52 to 53 |
| O=C(O)Cn1c(-c2ccccc2)ncc(NC(=O)OCc2ccccc2)c1=O | 179 to 183 |
| CC1=NC(NC(=O)Nc2cccc(C)c2)C(=O)N(CC(=O)N(CC(C)C)CC(C)C)c2c(C)cccc21 (stereo not drawn) | 227 to 228 |
| CCCc1nc2c(N)nc3cc(OCc4ccc(C)cc4)ccc3c2n1CC(C)C | 205 to 207 |
| CONCc1nc2c(N)nc(C)c(C)c2n1CC(C)C | 154 to 156 |
| Cc1c(C)c(C)c2c(c1C)CCCC2 | 81.5 to 82 |

Results, then the compound that gave them:

| melting point [°C] | Compound |
| --- | --- |
| 160 to 162 | CC[C@H](NC(=O)OCC1c2ccccc2-c2ccccc21)[C@@H](O)C(=O)O |
| 260 to 263 | COc1ccc2[nH]c3c(c2c1)C[C@@]1(C)C(=O)N(CCN2CCOCC2)C(=O)N1[C@@H]3c1cccc(O)c1 (racemic) |
| 216 to 217 | CC1(C)CCC(C)(C)c2cc(C(=O)C(=O)Nc3ccc(C(=O)O)cc3)ccc21 |
| 216 | CCN(CC)c1ccc(-c2cc(-c3ccc(C(=O)O)cc3)ccc2OCCO)cc1C(C)(C)C |
| 190 to 192 | CC(=O)Nc1ccc2c(c1)CC(CC(=O)O)C2=O (single isomer, unassigned; (-)) |
| 239 to 241 | Oc1ccc2oc(-c3cccc(O)c3O)nc2c1 |
| 244 to 248 | Cc1sc(-c2ccc([N+](=O)[O-])cc2)nc1O |
| 92 to 94 | COc1ccc2cc([C@H](C)C(=O)OCCNC(=O)c3cccc(CO[N+](=O)[O-])c3)ccc2c1 |
| 170 to 174 | COc1ccc(C(=O)Nc2ccccc2)cc1NC(=S)Nc1c(F)c(F)cc(F)c1F |
| 231 to 232 | Cn1c(COc2ccc(CC3SC(=O)NC3=O)cc2)nc2ncccc21 (stereo not drawn) |
| 233 to 234 | N#CCNC(=O)C1(NC(=O)c2ccc(C3CCN(C4CCCC4)CC3)cc2)CCCCC1 |
| 121 to 123 | O=C(O)CON=Cc1ccc(Cl)cc1 |
| 87 to 89 | COc1ccc(COC(=O)[C@H]2CC[C@H](C(=O)O)CC2)cc1 |
| 179 | N#Cc1ccc(-c2cn(-c3ccc(OCC(F)(F)F)cc3)cn2)cc1 |
| 162 to 163 | CCOC1CCC(=O)N1S(=O)(=O)c1ccc(O)cc1 (stereo not drawn) |
| 101 to 102 | CN(C(=O)OC(C)(C)C)c1cc(Oc2cccnc2)ccc1N |
| 143 to 145 | O=C(NCCO)/C(=C/c1ccc(Cl)cc1)NC(=O)c1ccc(OCCC2CC2)cc1 |

| melting point [°C] | Compound |
| --- | --- |
| 123 to 126 | CC(=O)N1OCC(=O)N(CO)C1c1ccccc1 (stereo not drawn) |
| 154 to 156 | O=C(N[C@@H]1CN(C2CCCCC2)C[C@H]1O)c1ccccc1 (relative stereo) |
| 125 to 128 | COC(=O)c1ccncc1C(=O)c1ccc(-n2ccnc2)cc1 |
| 195 to 198 | CC(=O)c1ccc(OC2SCC(O)C(O)C2O)cc1 (stereo not drawn) |
| 95 to 96 | CC(C)=CCc1cc(C2Oc3c(CC=C(C)C)c(O)cc(O)c3C(=O)C2O)ccc1O (stereo not drawn) |
| 181 to 183 | O=[N+]([O-])c1ccccc1OC1OC(COP(=O)(O)O)C(O)C(O)C1O (stereo not drawn) |
| 203 to 204 | COc1cc(O)c2c(=O)c(OC)c(-c3ccc(OC4OC(CO)C(O)C(O)C4O)c(OC)c3)oc2c1 (stereo not drawn) |
| 172 to 174 | CC(=O)NC[C@H]1OC(=O)N2c3ccc(C(=O)CCl)cc3C[C@H]12 |
| 118 to 123 | CC(=O)Nc1ccc2c(c1)NCC(CN(C)C)C2 (stereo not drawn) |
| 119 to 120 | COCc1c(C(=O)OC(C)C)ncc2[nH]c3cccc(Oc4ccc(Cl)cc4)c3c12 |
| 79 to 80 | Cc1ccc(C)n1-c1ccc(C(C)C#N)cc1 (stereo not drawn) |
| 152 to 154 | Cc1cncc(COc2cccc(C(N)=O)c2)c1 |
| 146 | O=C1CC(c2ccccc2)N(C(=O)Cl)N1 (stereo not drawn) |
| 175 to 180 | CC(=O)N(CCCc1ccccc1)[C@H]1CC[C@H](c2ccc(O)cc2)CC1 |
| 91 to 92 | COC(=O)c1cc(OCCCCCCOc2ccc(-c3ccccc3)cc2)ccc1O |
| 108 to 109 | COC(=O)C1=Cc2ccc(O)cc21 |
